Source: patent US11739098B2 (BRISTOL-MYERS SQUIBB COMPANY, priority 2017, dated 2023)

What was measured:
Type in all cases: cell-based
human TLR7 = target: T1, human TLR7 (Homo sapiens, UniProt Q9NYK1); assay: TLR7 inhibition reporter assay (HEK-Blue cells, SEAP reporter, gardiquimod stimulation); settings: HEK-Blue cells overexpressing human TLR7, SEAP reporter, gardiquimod 7.5 μM
T1 construct: host or cells: HEK-Blue cells (HEK293-derived reporter line)
T1 sequence (Q9NYK1 27-1049): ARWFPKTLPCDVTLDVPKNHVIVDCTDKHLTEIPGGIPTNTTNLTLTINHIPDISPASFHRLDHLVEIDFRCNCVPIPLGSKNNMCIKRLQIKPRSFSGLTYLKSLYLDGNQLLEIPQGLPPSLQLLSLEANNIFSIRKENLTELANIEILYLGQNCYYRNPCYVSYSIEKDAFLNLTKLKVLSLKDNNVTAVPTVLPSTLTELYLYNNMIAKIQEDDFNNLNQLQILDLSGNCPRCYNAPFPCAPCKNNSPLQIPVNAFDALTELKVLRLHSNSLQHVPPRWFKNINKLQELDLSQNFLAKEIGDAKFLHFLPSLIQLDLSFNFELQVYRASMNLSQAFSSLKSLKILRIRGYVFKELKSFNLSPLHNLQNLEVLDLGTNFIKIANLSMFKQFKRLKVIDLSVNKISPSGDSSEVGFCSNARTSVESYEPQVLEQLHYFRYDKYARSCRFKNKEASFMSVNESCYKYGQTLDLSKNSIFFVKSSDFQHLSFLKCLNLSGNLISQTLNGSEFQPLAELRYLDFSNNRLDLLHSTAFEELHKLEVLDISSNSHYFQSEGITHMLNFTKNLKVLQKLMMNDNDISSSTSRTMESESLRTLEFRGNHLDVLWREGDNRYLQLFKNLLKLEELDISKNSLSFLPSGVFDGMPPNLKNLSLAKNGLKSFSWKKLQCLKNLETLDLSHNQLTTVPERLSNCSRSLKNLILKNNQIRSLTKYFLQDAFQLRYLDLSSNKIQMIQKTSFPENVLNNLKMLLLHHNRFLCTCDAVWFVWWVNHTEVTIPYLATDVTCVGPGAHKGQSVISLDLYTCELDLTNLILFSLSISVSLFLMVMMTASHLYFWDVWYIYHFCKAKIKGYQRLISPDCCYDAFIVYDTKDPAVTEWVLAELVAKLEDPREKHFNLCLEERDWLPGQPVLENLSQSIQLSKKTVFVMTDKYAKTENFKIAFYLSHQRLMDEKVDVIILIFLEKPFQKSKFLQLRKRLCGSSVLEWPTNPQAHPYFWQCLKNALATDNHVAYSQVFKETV
Summary of the method: (§1)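 Read-out is SEAP activity in HEK-Blue detection medium after 22 h at 37 °C, converted to percent inhibition against agonist-plus-DMSO and reference-inhibitor controls. Cells saw compound (0.05 nM–50 μM, 30 min, room temperature) before gardiquimod 7.5 μM, R848 15.9 μM or ODN2006 5 nM for TLR7, TLR8 and TLR9, respectively.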

human TLR9 = target: T2, human TLR9 (Homo sapiens, UniProt Q9NR96); assay: TLR9 inhibition reporter assay (HEK-Blue cells, SEAP reporter, ODN2006 stimulation); settings: HEK-Blue cells overexpressing human TLR9, SEAP reporter, ODN2006 5 nM
T2 construct: host or cells: HEK-Blue cells (HEK293-derived reporter line)
T2 sequence (Q9NR96 26-1032): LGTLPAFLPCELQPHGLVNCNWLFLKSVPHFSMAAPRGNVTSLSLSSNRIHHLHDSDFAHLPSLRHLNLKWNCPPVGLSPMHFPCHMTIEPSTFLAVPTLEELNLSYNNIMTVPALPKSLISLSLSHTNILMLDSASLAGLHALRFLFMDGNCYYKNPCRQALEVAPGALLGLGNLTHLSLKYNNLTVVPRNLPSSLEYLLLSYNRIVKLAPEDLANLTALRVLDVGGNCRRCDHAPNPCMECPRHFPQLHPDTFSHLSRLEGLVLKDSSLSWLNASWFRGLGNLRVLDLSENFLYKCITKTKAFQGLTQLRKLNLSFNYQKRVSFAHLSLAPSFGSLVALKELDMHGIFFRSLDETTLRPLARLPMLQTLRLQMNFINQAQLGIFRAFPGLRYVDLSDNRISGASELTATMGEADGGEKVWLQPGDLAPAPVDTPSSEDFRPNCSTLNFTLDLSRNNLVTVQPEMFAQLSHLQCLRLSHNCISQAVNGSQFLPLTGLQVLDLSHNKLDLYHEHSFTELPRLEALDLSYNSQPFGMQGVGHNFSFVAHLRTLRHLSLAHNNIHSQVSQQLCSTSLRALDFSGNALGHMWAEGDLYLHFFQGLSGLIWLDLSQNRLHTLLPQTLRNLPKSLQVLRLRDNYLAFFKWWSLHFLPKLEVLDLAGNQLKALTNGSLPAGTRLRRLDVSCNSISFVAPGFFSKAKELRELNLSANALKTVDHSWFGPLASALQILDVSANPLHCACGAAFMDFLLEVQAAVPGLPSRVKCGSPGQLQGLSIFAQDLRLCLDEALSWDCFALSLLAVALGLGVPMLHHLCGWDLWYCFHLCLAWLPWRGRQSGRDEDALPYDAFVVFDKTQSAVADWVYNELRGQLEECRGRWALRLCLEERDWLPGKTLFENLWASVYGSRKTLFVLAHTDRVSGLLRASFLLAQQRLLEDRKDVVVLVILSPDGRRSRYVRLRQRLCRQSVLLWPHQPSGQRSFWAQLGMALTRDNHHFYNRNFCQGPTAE
Summary of the method: as §1

human TLR8 = target: T3, human TLR8 (Homo sapiens, UniProt Q9NR97); assay: TLR8 inhibition reporter assay (HEK-Blue cells, SEAP reporter, R848 stimulation); settings: HEK-Blue cells overexpressing human TLR8, SEAP reporter, R848 15.9 μM
T3 construct: host or cells: HEK-Blue cells (HEK293-derived reporter line)
T3 sequence (Q9NR97 27-1041): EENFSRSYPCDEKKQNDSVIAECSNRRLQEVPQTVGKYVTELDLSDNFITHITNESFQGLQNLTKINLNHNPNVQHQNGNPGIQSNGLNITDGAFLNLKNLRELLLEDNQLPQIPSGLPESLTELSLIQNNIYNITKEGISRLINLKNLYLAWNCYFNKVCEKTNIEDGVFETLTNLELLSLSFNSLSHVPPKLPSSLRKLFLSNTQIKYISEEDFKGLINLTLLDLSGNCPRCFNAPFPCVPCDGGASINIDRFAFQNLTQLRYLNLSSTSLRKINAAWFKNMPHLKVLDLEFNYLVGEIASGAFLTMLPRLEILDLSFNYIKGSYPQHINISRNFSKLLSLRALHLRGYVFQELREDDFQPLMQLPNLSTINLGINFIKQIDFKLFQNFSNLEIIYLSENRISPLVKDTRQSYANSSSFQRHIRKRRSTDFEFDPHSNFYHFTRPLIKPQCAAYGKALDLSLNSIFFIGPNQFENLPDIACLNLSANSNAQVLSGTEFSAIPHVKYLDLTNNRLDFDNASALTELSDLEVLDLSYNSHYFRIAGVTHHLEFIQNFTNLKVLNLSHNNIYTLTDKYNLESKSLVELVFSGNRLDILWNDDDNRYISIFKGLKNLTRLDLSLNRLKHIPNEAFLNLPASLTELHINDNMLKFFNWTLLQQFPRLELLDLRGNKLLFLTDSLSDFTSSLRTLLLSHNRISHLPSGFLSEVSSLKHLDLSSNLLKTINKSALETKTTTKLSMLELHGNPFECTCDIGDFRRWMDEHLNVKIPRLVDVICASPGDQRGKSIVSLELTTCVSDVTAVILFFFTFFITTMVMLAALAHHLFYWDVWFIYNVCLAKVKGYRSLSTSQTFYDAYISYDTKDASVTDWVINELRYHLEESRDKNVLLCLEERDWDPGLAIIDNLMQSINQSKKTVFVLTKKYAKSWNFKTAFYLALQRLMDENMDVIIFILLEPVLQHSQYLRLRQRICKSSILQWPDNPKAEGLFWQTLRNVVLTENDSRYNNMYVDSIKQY
Summary of the method: as §1

Structure (SMILES) | IC50 (human TLR7) | IC50 (human TLR9) | IC50 (human TLR8)
Cc1cc(-c2[nH]c3ccc(C4CCN(Cc5ncn(C)n5)CC4)cc3c2C(C)C)cn2nncc12 [Example 881, 6-(3-isopropyl-5-(1-((1-methyl-1H-1,2,4-triazol-3-yl)methyl)piperidin-4-yl)-1H-indol-2-yl)-4-methyl-[1,2,3]triazolo[1,5-a]pyridine] | 1000 to 50000 nM | 1000 to 50000 nM | 100 to 1000 nM
Cc1nnn2ccc(-c3[nH]c4ccc(C5CCN(C6CCOCC6)CC5)cc4c3C(C)C)cc12 [Example 700, 5-(3-isopropyl-5-(1-(tetrahydro-2H-pyran-4-yl)piperidin-4-yl)-1H-indol-2-yl)-3-methyl-[1,2,3]triazolo[1,5-a]pyridine] | < 100 nM | 100 to 1000 nM | < 100 nM
Cc1cc(-c2[nH]c3ccc(C4CCN(C(CO)CO)CC4)cc3c2C(C)C)cc2nccn12 [Example 755, 2-(4-(3-isopropyl-2-(5-methylimidazo[1,2-a]pyridin-7-yl)-1H-indol-5-yl)piperidin-1-yl)propane-1,3-diol] | 100 to 1000 nM | < 100 nM | 100 to 1000 nM
Cc1cc(-c2[nH]c3ccc(C4CCN(S(=O)(=O)CCN(C)C)CC4)cc3c2C(C)C)cn2nnnc12 [Example 617, 2-((4-(3-isopropyl-2-(8-methyltetrazolo[1,5-a]pyridin-6-yl)-1H-indol-5-yl)piperidin-1-yl)sulfonyl)-N,N-dimethylethan-1-amine] | < 100 nM | 1000 to 50000 nM | < 100 nM
CNC(=O)CN1CCC(c2ccc3[nH]c(-c4cn5cc(C)nc5cc4C)c(C(C)C)c3c2)CC1 [Example 374, 2-(4-(2-(2,7-dimethylimidazo[1,2-a]pyridin-6-yl)-3-isopropyl-1H-indol-5-yl)piperidin-1-yl)-N-methylacetamide] | < 100 nM | 100 to 1000 nM | 100 to 1000 nM
CCc1c(-c2cnc3cn[nH]c3c2)[nH]c2ccc(C3CCNCC3)cc12 [Example 62, 6-(3-ethyl-5-(piperidin-4-yl)-1H-indol-2-yl)-1H-pyrazolo[4,3-b]pyridine] | 100 to 1000 nM | 100 to 1000 nM | 100 to 1000 nM
CC(C)c1c(-c2ccnc3[nH]ncc23)[nH]c2ccc(C3CCN(C(=O)c4cc[nH]n4)CC3)cc12 [Example 615, (4-(3-isopropyl-2-(1H-pyrazolo[3,4-b]pyridin-4-yl)-1H-indol-5-yl)piperidin-1-yl)(1H-pyrazol-3-yl)methanone] | 100 to 1000 nM | 1000 to 50000 nM | 100 to 1000 nM
CC(C)c1c(-c2ccn3ccnc3c2)[nH]c2ccc(C3CCNCC3)cc12 [Example 203, 7-(3-isopropyl-5-(piperidin-4-yl)-1H-indol-2-yl)imidazo[1,2-a]pyridine] | < 100 nM | 100 to 1000 nM | < 100 nM
Cc1cc(-c2[nH]c3ccc(C4CCN(C5COC5)CC4)cc3c2C(C)C)cn2nncc12 [Example 737, 6-(3-isopropyl-5-(1-(oxetan-3-yl)piperidin-4-yl)-1H-indol-2-yl)-4-methyl-[1,2,3]triazolo[1,5-a]pyridine] | 1000 to 50000 nM | 1000 to 50000 nM | 1000 to 50000 nM
Cc1c(-c2ccnc3[nH]cc(-c4ccccc4)c23)[nH]c2ccc(C3CCNCC3)cc12 [Example 223, 4-(3-methyl-5-(piperidin-4-yl)-1H-indol-2-yl)-3-phenyl-1H-pyrrolo[2,3-b]pyridine] | 1000 to 50000 nM | 100 to 1000 nM | 1000 to 50000 nM
CC(C)c1c(-c2ccc3cc[nH]c3c2)[nH]c2ccc(C3CCNCC3)cc12 [Example 65, 3-isopropyl-5-(piperidin-4-yl)-1H,1′H-2,6′-biindole] | 1000 to 50000 nM | 1000 to 50000 nM | 1000 to 50000 nM
Cc1cc(-c2[nH]c3ccc(C4CCN(CC(C)(C)O)CC4)cc3c2C(C)C)cc2nccn12 [Example 757, 1-(4-(3-isopropyl-2-(5-methylimidazo[1,2-a]pyridin-7-yl)-1H-indol-5-yl)piperidin-1-yl)-2-methylpropan-2-ol] | 1000 to 50000 nM | 100 to 1000 nM | 100 to 1000 nM
Cc1cc(-c2[nH]c3ccc(C4CCN(CC(C)(C)O)CC4)cc3c2C(C)C)cc2cnn(C)c12 [Example 762, 1-(4-(2-(1,7-dimethyl-1H-indazol-5-yl)-3-isopropyl-1H-indol-5-yl)piperidin-1-yl)-2-methylpropan-2-ol] | 100 to 1000 nM | 1000 to 50000 nM | 100 to 1000 nM
CCc1c(-c2ccnc3[nH]ccc23)[nH]c2cc(C)c(C3CCN(C4CCN(C(C)C)CC4)CC3)cc12 [Example 840, 4-(3-ethyl-5-(1′-isopropyl-[1,4′-bipiperidin]-4-yl)-6-methyl-1H-indol-2-yl)-1H-pyrrolo[2,3-b]pyridine] | 1000 to 50000 nM | 100 to 1000 nM | 1000 to 50000 nM
Cc1cc(-c2[nH]c3ccc(C4CCN(CC(C)(C)O)CC4)cc3c2C(C)C)c2ccccc2n1 [Example 752, 1-(4-(3-isopropyl-2-(2-methylquinolin-4-yl)-1H-indol-5-yl)piperidin-1-yl)-2-methylpropan-2-ol] | < 100 nM | 1000 to 50000 nM | < 100 nM
